From patent US9006139B2, “Active compound combinations” (Bayer Intellectual Property GmbH, priority 2009, dated 2015)
Read-outs that look alike come from different tables or passages of the source.

Experiments:
Assay type in all cases: in vivo
Sphaerotheca fuliginea = assay: Sphaerotheca test (cucumbers)/protective; details: Podosphaera fuliginea, 168 h, Table C, read-out: Efficacy in % found; for pest or weed control at 50 ppm: 50 ppm a.i.; for pest or weed control at 200 ppm: 200 ppm a.i.; for pest or weed control at 100 ppm: 100 ppm a.i.
In short: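 Young cucumber plants sprayed protectively with compound in acetone/dimethylacetamide with emulsifier, water-diluted, at the stated rate. After drying, plants inoculated with Sphaerotheca fuliginea spores and kept at ~23° C and ~70% RH. Efficacy scored at 7 days: 0% = untreated control, 100% = no disease.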

Fusarium graminearum = details: Table L; 500 ppm a.i.
Leptosphaeria nodorum = Leptosphaeria nodorum test (wheat)/preventive; details: Parastagonospora nodorum, 192 h, Table K, read-out: Efficacy in % found
Method: Solvent: 49 parts by weight of n,n-dimethylacetamid
Emulsifier: 1 part by weight of alkylaryl polyglycol ether
To produce a suitable preparation of active compound, 1 part by weight of active compound or active compound combination is mixed with the stated amounts of solvent and emulsifier, and the concentrate is diluted with water to the desired concentration. To test for preventive activity, young plants are sprayed with the preparation of active compound or active compound combination at the stated rate of application. After the spray coating has been dried, the plants are sprayed with a spore suspension of Leptosphaeria nodorum. The plants remain for 48 hours in an incubation cabinet at approximately 20° C. and a relative atmospheric humidity of approximately 100%. The plants are placed in the greenhouse at a temperature of approximately 22° C. and a relative atmospheric humidity of approximately 80%. The test is evaluated 8 days after the inoculation. 0% means an efficacy which corresponds to that of the untreated control, while an efficacy of 100% means that no disease is observed.

Botrytis cinerea = assay: Botrytis test (beans)/protective; details: Botrytis cinerea, 48 h, Table F, read-out: Efficacy in % found; for pest or weed control at 25 ppm: 25 ppm a.i.; for pest or weed control at 50 ppm: 50 ppm a.i.
In short: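 Young bean plants were sprayed with compound in acetone/dimethylacetamide plus emulsifier diluted in water; once dry, each leaf got 2 agar pieces bearing Botrytis cinerea. Plants were held dark at 20 °C and 100% relative humidity, and lesion size was scored after 2 days as efficacy, 0% matching untreated control and 100% meaning no disease.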

Phytophthora infestans = assay: whole plant or invertebrate; details: Phytophthora infestans, 72 h; for pest or weed control at 12.5 ppm: 12.5 ppm a.i.; for pest or weed control at 50 ppm: 50 ppm a.i.; for pest or weed control at 10 ppm: 10 ppm a.i.; for pest or weed control at 20 ppm: 20 ppm a.i.
[1] = read-out: Efficacy in % found, Table A, test 1
[2] = read-out: Efficacy in % found, Table A, test 5
[3] = read-out: Efficacy in % found, Table A, test 6

**Q.** Which results are given for `Cn1c(=O)c2sc3c(=O)n(C)c(=O)c3sc2c1=O` [(I-1), 2,6-dimethyl-1H,5H-[1,4]dithiino[2,3-c:5,6-c′]dipyrrole-1,3,5,7(2H,6H)-tetrone]?
**A.** pest or weed control at 50 ppm (Sphaerotheca fuliginea; test 1): 0%; pest or weed control at 200 ppm (Sphaerotheca fuliginea; test 1): 30%; pest or weed control at 50 ppm (Sphaerotheca fuliginea; test 2): 38%; pest or weed control at 200 ppm (Sphaerotheca fuliginea; test 2): 65%; pest or weed control at 50 ppm (Sphaerotheca fuliginea; test 3): 20%; pest or weed control at 100 ppm (Sphaerotheca fuliginea; test 3): 30%; pest or weed control at 100 ppm (Sphaerotheca fuliginea; test 4): 19%; Efficacy in % found (Fusarium graminearum): 0%; pest or weed control at 500 ppm (Leptosphaeria nodorum; 500 ppm a.i.): 13%; pest or weed control at 1000 ppm (Leptosphaeria nodorum; 1000 ppm a.i.): 11%; pest or weed control at 25 ppm (Botrytis cinerea; test 1): 0%; pest or weed control at 50 ppm (Botrytis cinerea; test 1): 45%; pest or weed control at 25 ppm (Botrytis cinerea; test 2): 0%; pest or weed control at 50 ppm (Botrytis cinerea; test 2): 40%; pest or weed control at 12.5 ppm (Botrytis cinerea; test 3, 12.5 ppm a.i.): 0%; pest or weed control at 50 ppm (Botrytis cinerea; test 3): 58%; pest or weed control at 12.5 ppm (Phytophthora infestans; [1]): 0%; pest or weed control at 25 ppm (Phytophthora infestans; read-out: Efficacy in % found, Table A, test 1, 25 ppm a.i.): 5%; pest or weed control at 50 ppm (Phytophthora infestans; [1]): 18%; pest or weed control at 12.5 ppm (Phytophthora infestans; read-out: Efficacy in % found, Table A, test 2): 35%; pest or weed control at 50 ppm (Phytophthora infestans; read-out: Efficacy in % found, Table A, test 3): 36%; pest or weed control at 50 ppm (Phytophthora infestans; read-out: Efficacy in % found, Table A, test 4): 47%; pest or weed control at 10 ppm (Phytophthora infestans; [2]): 0%; pest or weed control at 20 ppm (Phytophthora infestans; [2]): 0%; pest or weed control at 10 ppm (Phytophthora infestans; [3]): 0%; pest or weed control at 20 ppm (Phytophthora infestans; [3]): 9%; pest or weed control at 40 ppm (Phytophthora infestans; read-out: Efficacy in % found, Table A, test 6, 40 ppm a.i.): 11%; pest or weed control at 12.5 ppm (Phytophthora infestans; read-out: Efficacy in % found, Table A, test 7): 39%
